Literature values, collected in patent publication US20250114388A1, “ACTIVE PHARMACEUTICAL INGREDIENT COMPOSITIONS AND PREPARATION AND USES THEREOF” (Dr. Anti Fungus, LLC, priority 2023, published 2025).
*1 amine or outer side, *2 acyl side, *3 side chain or, on linkers, in order; H or OH if unused. Where a SMILES comes first, the peptide text is derived from it. Bridges are numbered along the chain shown (N, C = ends). [ ]: non-standard residue; d: D form. The star is where a group is joined. pTerphenylCO(4''-OnC5H11) = CCCCCOc1ccc(-c2ccc(-c3ccc(C(=O)*)cc3)cc2)cc1; Orn(4R-OH,5R-OH) = O=C([C@H](C[C@@H](O)[C@@H](O)N[*:3])N[*:1])[*:2]; hTyr(3S-OH,4S-OH) = N[C@H](C(=O)O)[C@H](O)[C@@H](O)c1ccc(O)cc1; Pro(3S-OH,4S-Me) = C[C@H]1CN[C@H](C(=O)O)[C@H]1O; Hyp = O=C(O)[C@@H]1C[C@@H](O)CN1

Q: With `C[C@@H]1[C@H](O)[C@@H](C)/C=C/C=C/C=C/C=C/C=C/C=C/C=C/[C@H](O[C@@H]2O[C@H](C)[C@@H](O)[C@H](N)[C@@H]2O)C[C@@H]2O[C@](O)(C[C@@H](O)C[C@@H](O)[C@H](O)CC[C@@H](O)C[C@@H](O)CC(=O)O[C@H]1C)C[C@H](O)[C@H]2C(=O)O` [amphotericin B] as the molecule, how does the solubility in water read?
A: Its solubility in water is “insoluble”.

Q: For `CCCCCOc1ccc(-c2ccc(-c3ccc(C(=O)N[C@H]4C[C@@H](O)[C@@H](O)NC(=O)[C@@H]5[C@@H](O)[C@@H](C)CN5C(=O)[C@H]([C@@H](C)O)NC(=O)[C@H]([C@H](O)[C@@H](O)c5ccc(O)cc5)NC(=O)[C@@H]5C[C@@H](O)CN5C(=O)[C@H]([C@@H](C)O)NC4=O)cc3)cc2)cc1` [anidulafungine] ({pTerphenylCO(4''-OnC5H11)}-[Orn(4R-OH,5R-OH)]T[Hyp][hTyr(3S-OH,4S-OH)]T[Pro(3S-OH,4S-Me)]; lactam 1-C), which solubility in water is on record?
A: Its solubility in water is “insoluble”.

Q: With `Clc1ccccc1C(c1ccccc1)(c1ccccc1)n1ccnc1` [clotrimazole] as the molecule, how does the solubility in water read?
A: Its solubility in water is “insoluble”.

Q: Which solubility in water does the source give for `Clc1ccc(COC(Cn2ccnc2)c2ccc(Cl)cc2Cl)cc1` (centres unmarked) [econazole] here?
A: The solubility in water was “insoluble”.

Q: For `OC(Cn1cncn1)(Cn1cncn1)c1ccc(F)cc1F` [fluconazole], which solubility in water is on record?
A: Its solubility in water is “sparingly soluble”.

Q: Which solubility in water does the source give for `CCC(C)n1ncn(-c2ccc(N3CCN(c4ccc(OCC5COC(Cn6cncn6)(c6ccc(Cl)cc6Cl)O5)cc4)CC3)cc2)c1=O` (centres unmarked) [itraconazole] here?
A: Its solubility in water is “insoluble”.

Q: With `CC(=O)N1CCN(c2ccc(OCC3COC(Cn4ccnc4)(c4ccc(Cl)cc4Cl)O3)cc2)CC1` (centres unmarked) [ketoconazole] as the molecule, how does the solubility in water read?
A: Its solubility in water is “insoluble”.

Q: Which solubility in water does the source give for `Clc1ccc(COC(Cn2ccnc2)c2ccc(Cl)cc2Cl)c(Cl)c1` (centres unmarked) [miconazole] here?
A: The solubility in water was “insoluble”.

Q: For `C[C@@H]1[C@H](O)[C@@H](C)/C=C/C=C/CC/C=C/C=C/C=C/C=C/C(O[C@H]2O[C@H](C)[C@@H](O)[C@H](N)[C@@H]2O)CC2O[C@](O)(CC(O)C(O)CCC(O)CC(O)CC(O)CC(=O)O[C@H]1C)CC(O)C2C(=O)O` (some centres unmarked) [nystatin], which solubility in water is on record?
A: The solubility in water was “sparingly soluble”.

Q: With `CN(C/C=C/C#CC(C)(C)C)Cc1cccc2ccccc12` [terbinafine] as the molecule, how does the solubility in water read?
A: The solubility in water was “sparingly soluble”.

Q: With `Cc1cccc(N(C)C(=S)Oc2ccc3ccccc3c2)c1` [tolnaftate] as the molecule, how does the solubility in water read?
A: The solubility in water was “insoluble”.
